Entries after “also recorded” stand apart in the source; their conditions may differ. Where two headings read alike, the source gives them in different places.
Columns and labels:
Assay type in all cases: cell-based, human
[1] = test system: MCF7 breast cancer cell line; assay: MTT cell cytotoxicity assay, MCF7; conditions: 72 h exposure, read-out: Cytotoxicity (IC50s)
Procedure: (§1) A panel of colon (HT29, HCT116, COLO205, HCC2998), breast (MCF7, MDA-MB-435), lung (HOP62, HOP92), ovarian (OVCAR3, IGROV1), prostate (DU145, PC3), and head and neck (SCC61, HEP2, SQ20B) human cancer cell lines was purchased from the ATCC (Rockville, Md.) and National Cancer Institute collections. […] All the data generated was the result of three separate experiments performed in duplicate. Cell viability was determined using the MTT assay, which was carried out as described previously (Hansen, 1989). Briefly, cells were seeded in 96-well plates at a density of 2×10^3 cells well^−1. […] The monolayer was suspended in 0.1 ml of DMSO and the absorbance at 560 nm was measured using a microplate reader. Positive and negative controls included wells with untreated cells or medium containing MTT with no cells, respectively. The conversion of yellow water-soluble tetrazolium MTT into purple insoluble formazan is catalyzed by mitochondrial dehydrogenases and is used to estimate the number of viable cells.

HOP92 NSCLC cell line = assay: MTT cell cytotoxicity assay, HOP92; conditions: 72 h exposure, read-out: Cytotoxicity (IC50s)
Procedure: as §1

HOP62 NSCLC cell line = assay: MTT cell cytotoxicity assay, HOP62; conditions: 72 h exposure, read-out: Cytotoxicity (IC50s)
Procedure: as §1

[2] = test system: SQ20B head and neck cancer cell line; assay: MTT cell cytotoxicity assay, SQ20B; conditions: 72 h exposure, read-out: Cytotoxicity (IC50s)
Procedure: as §1

[3] = test system: HCC2998 colon cancer cell line; assay: MTT cell cytotoxicity assay, HCC2998; conditions: 72 h exposure, read-out: Cytotoxicity (IC50s)
Procedure: as §1

[4] = test system: OVCAR3 ovarian cancer cell line; assay: MTT cell cytotoxicity assay, OVCAR3; conditions: 72 h exposure, read-out: Cytotoxicity (IC50s)
Procedure: as §1

[5] = test system: HCT116 colon cancer cell line; assay: MTT cell cytotoxicity assay, HCT116; conditions: 72 h exposure, read-out: Cytotoxicity (IC50s)
Procedure: as §1

[6] = test system: DU145 prostate cancer cell line; assay: MTT cell cytotoxicity assay, DU145; conditions: naïve/parental, 72 h exposure, read-out: Cytotoxicity (IC50s)
Procedure: as §1

[7] = test system: COLO205 colon cancer cell line; assay: MTT cell cytotoxicity assay, COLO205; conditions: 72 h exposure, read-out: Cytotoxicity (IC50s)
Procedure: as §1

[8] = test system: HEP2 head and neck cancer cell line; assay: MTT cell cytotoxicity assay, HEP2; conditions: 72 h exposure, read-out: Cytotoxicity (IC50s)
Procedure: as §1

[9] = test system: IGROV1 ovarian cancer cell line; assay: MTT cell cytotoxicity assay, IGROV1; conditions: 72 h exposure, read-out: Cytotoxicity (IC50s)
Procedure: as §1

[10] = test system: SCC61 head and neck cancer cell line; assay: MTT cell cytotoxicity assay, SCC61; conditions: 72 h exposure, read-out: Cytotoxicity (IC50s)
Procedure: as §1

[11] = test system: PC3 prostate cancer cell line; assay: MTT cell cytotoxicity assay, PC3; conditions: 72 h exposure, read-out: Cytotoxicity (IC50s)
Procedure: as §1

[12] = test system: MDA-MB-435 melanoma cell line; assay: MTT cell cytotoxicity assay, MDA-MB-435; conditions: MDA-MB-435 (melanoma; MDA435 in table), 72 h exposure, read-out: Cytotoxicity (IC50s)
Procedure: as §1

[13] = test system: HT29 colon cancer cell line; assay: MTT cell cytotoxicity assay, HT29; conditions: 72 h exposure, read-out: Cytotoxicity (IC50s)
Procedure: as §1

DU-PDX cells = assay: Cytotoxicity in 10-propargyl-10-deazaminopterin-adapted DU145 cells
Procedure: (§2) All the data generated was the result of three separate experiments performed in duplicate. Cell viability was determined using the MTT assay, which was carried out as described previously (Hansen, 1989). Briefly, cells were seeded in 96-well plates at a density of 2×10^3 cells well^−1. Cells were incubated for 120 hours and then 0.4 mg ml^−1 of MTT dye (3-[4,5-dimethylthiazol-2-yl]-2,5-diphenyltetrazolium bromide was added for 4 hours at 37° C. The monolayer was suspended in 0.1 ml of DMSO and the absorbance at 560 nm was measured using a microplate reader. Positive and negative controls included wells with untreated cells or medium containing MTT with no cells, respectively. The conversion of yellow water-soluble tetrazolium MTT into purple insoluble formazan is catalyzed by mitochondrial dehydrogenases and is used to estimate the number of viable cells. The control value corresponding to untreated cells was taken as 100% and the viability of treated samples was expressed as a percentage of the control. IC50 values were determined as concentrations that reduced cell viability by 50%.
(§3) For single agent studies, cells were seeded and allowed to settle for 24 hours prior to treatment with increasing concentrations of 10-propargyl-10-deazaminopterin for 72 h. After incubation, the cells were allowed to recover in compound-free medium for 48 h, prior to determination of growth inhibition using the MTT assay.
(§4) To characterize the predictive factors of 10-propargyl-10-deazaminopterin antiproliferative effects, the cell lines DU-PDX and HEP-PDX were developed from parental DU145 and HEP2 cells, respectively, by exposure to stepwise increasing concentrations of 10-propargyl-10-deazaminopterin over a period of 6 months.

HEP-MTX cells = assay: Cytotoxicity in methotrexate-adapted HEP2 cells; conditions: methotrexate-adapted HEP2 compared with parental cells
Procedure: as §2
For single agent studies, cells were seeded and allowed to settle for 24 hours prior to treatment with increasing concentrations of 10-propargyl-10-deazaminopterin for 72 h. […]

HEP-PDX cells = assay: Cytotoxicity in 10-propargyl-10-deazaminopterin-adapted HEP2 cells
Procedure: as §2, §3, §4

DU-MTX cells = assay: Cytotoxicity in methotrexate-adapted DU145 cells
Procedure: as §2, §3
To compare the mechanisms of 10-propargyl-10-deazaminopterin and methotrexate resistance, the cell lines DU-MTX and HEP-MTX were developed from parental DU145 and HEP2 cells by exposure to stepwise increasing concentrations of methotrexate.

| SMILES | IC50 ([1]; Homo sapiens, MCF7, 72 h) [µM] | IC50 (HOP92 NSCLC cell line; Homo sapiens, HOP-92, 72 h) [nM] | IC50 (HOP62 NSCLC cell line; Homo sapiens, HOP-62, 72 h) [nM] | IC50 ([2]; Homo sapiens, SQ20B, 72 h) [nM] | IC50 ([3]; Homo sapiens, HCC 2998, 72 h) [µM] | IC50 ([4]; Homo sapiens, OVCAR-3, 72 h) [µM] | IC50 ([5]; Homo sapiens, HCT-116, 72 h) [µM] | IC50 ([6]; Homo sapiens, DU-145, 72 h) [nM] | IC50 ([7]; Homo sapiens, COLO 205, 72 h) [µM] | IC50 ([8]; Homo sapiens, HEp-2, 72 h) [nM] | IC50 ([9]; Homo sapiens, IGROV-1, 72 h) [µM] | IC50 ([10]; Homo sapiens, 72 h) [nM] | IC50 ([11]; Homo sapiens, 72 h) [nM] | IC50 ([12]; Homo sapiens, MDA-MB-435, 72 h) [µM] | IC50 ([13]; Homo sapiens, HT-29, 72 h) [nM] | other results |
| --- | --- | --- | --- | --- | --- | --- | --- | --- | --- | --- | --- | --- | --- | --- | --- | --- |
| C[C@H]1O[C@@H](n2cc(F)c(=O)[nH]c2=O)[C@H](O)[C@@H]1O [5′-DFUR] | – | – | – | – | – | – | – | – | – | – | – | – | – | – | – | IC50 [1]: 7.8 µM; IC50 (HOP92 NSCLC cell line): 135000 nM; IC50 (HOP62 NSCLC cell line): 380000 nM; IC50 [2]: 27000 nM; IC50 [3]: 34 µM; IC50 [4]: 230 µM; IC50 [5]: 45 µM; IC50 [6]: 28000 nM; IC50 [7]: 3.9 µM; IC50 [8]: 250000 nM; IC50 [9]: 29 µM; IC50 [10]: 3200 nM; IC50 [11]: 25000 nM; IC50 [12]: 33 µM; IC50 [13]: 16000 nM |
| CN(Cc1cnc2nc(N)nc(N)c2n1)c1ccc(C(=O)N[C@@H](CCC(=O)O)C(=O)O)cc1 [Methotrexate] | 300 | 600 | 150 | 260 | > 350 | > 350 | > 350 | 300 | 30 | 250 | 0.33 | 30 | 100 | > 350 | 220 | cross-resistance: cytotoxicity in DU-PDX compared with parental DU145 (DU-PDX cells; DU-PDX cells, 72 h exposure for pemetrexed and 5-FU): partial cross-resistance; also recorded: insensitive; sensitivity of HEP-MTX cells (in words) (HEP-MTX cells): displayed resistance; cross-resistance: cytotoxicity in HEP-PDX compared with parental HEP2 (HEP-PDX cells; HEP-PDX cells, 72 h exposure for pemetrexed and 5-FU): partial cross-resistance; increase in IC50 in methotrexate adapted DU-145 cells (DU-MTX cells; DU-MTX versus naïve DU-145): approximately 10 fold; sensitivity of DU-MTX cells (in words) (DU-MTX cells; methotrexate-adapted DU145 compared with parental/naïve cells): displayed resistance |
| Nc1nc2[nH]cc(CCc3ccc(C(=O)N[C@@H](CCC(=O)O)C(=O)O)cc3)c2c(=O)[nH]1 [Pemetrexed, pemetrexed] | 0.022 | 20 | 29 | 25 | 1.5 | 0.025 | 350 | 48 | 0.024 | 100 | 300 | 15 | 2700 | 300 | 23 | cross-resistance: cytotoxicity in DU-PDX compared with parental DU145 (DU-PDX cells): only slightly less cytotoxic; cross-resistance: cytotoxicity in HEP-PDX compared with parental HEP2 (HEP-PDX cells): only slightly less cytotoxic |

— US20130143891A1, “Methods for Treating Methotrexate-Resistant Disorders with 10-Propargyl-10-Deazaaminopterin” (ALLOS THERAPEUTICS, INC., priority 2010, published 2013)
